Measurements: patent US20260070924A1, “INDAZOLE MACROCYCLES AND THEIR USE” (BLOSSOMHILL THERAPEUTICS, INC., priority 2022, published 2026)
Read-outs that look alike come from different tables or passages of the source.

Tests used:
[1] = from C=Cc1nn(C2CCCCO2)c2ccc(-c3cnn(C)c3OCCN(C)C(=O)c3c(I)c(Br)nn3C)cc12; cc_pd bond; Pd(OAc)2, NaHCO3, TBAC; DMF; 54.0 mM; 140.0 °C; 1.5 h
[2] = system: Phospho-S6 Ribosomal Protein (S235/236); assay: Inhibition of kinase phosphorylation by Western Blot in MOLM-13; format: cell-based; conditions: Homo sapiens; MOLM-13 cells, 4 hour-incubation; read-out: pS6 MOLM-13 IC50
Protocol: (§1) Inhibition of kinase phosphorylation assay was performed by Western Blot using MV-4-11 and MOLM13 cell lines. Cells were plated in 24 well plates at 1 million cells per well and then treated with compounds at different concentrations, starting at 100 nM, 1:4 titration with DMSO as control. After 4 hour-incubation, cells were washed once with ice-cold PBS, and lysed in RIPA lysis buffer with protease and phosphatase inhibitors. The cell lysates were then sonicated and spun down, and 40 μg of proteins were separated by sodium dodecyl sulfate electrophoresis on a 4 to 12% Bis-Tris polyacrylamide gel and transferred onto nitrocellulose membranes using Bio-Rad Trans-Blot Turbo Transfer System (Bio-Rad). Blocking was performed using 3% BSA or 5% Non-fat dry milk (Fisher Scientific) in TBST (Tris-buffered saline containing 0.05% of Tween 20) (Bio-Rad Laboratories, Inc.). The membranes were incubated overnight with anti-phospho-FLT3 (Y589/Y591) (CST #60413), anti-phospho-STAT5 (Y694) (CST #4322), anti-Phospho-p44/42 MAPK (Erk1/2) (T202/Y204) (CST #9101), anti-Phospho-S6 Ribosomal Protein (S235/236) (CST #4858) and anti-β-Actin (CST #8457) each diluted 1000 times in 3% BSA in TBST. Membranes were washed with TBST and then incubated at room temperature for 1 hour with HRP-labeled anti-rabbit IgG polyclonal antibody (CST #7074) diluted 1000 times in 3% BSA. After TBST washing, blots were developed with a chemiluminescence system (SuperSignal West Femto Maximum Sensitivity Substrate, Pierce #34095). Luminescence was detected by LI-COR Odyssey M imaging system and luminescence intensity were quantified using Empiria Studio 2.2 software. Data was analyzed using GraphPad Prism 9 (GraphPad Software, San Diego, CA) to obtain IC50 values.

phospho-STAT5 (Y694) [3] = assay: as above; format: cell-based; conditions: Homo sapiens; MOLM-13 cells, 4 hour-incubation; read-out: pSTAT5 MOLM-13 IC50
Protocol: as §1

[4] = system: Phospho-p44/42 MAPK (Erk1/2) (T202/Y204); assay: as above; format: cell-based; conditions: Homo sapiens; MOLM-13 cells, 4 hour-incubation; read-out: pERK MOLM-13 IC50
Protocol: as §1

[5] = system: Phospho-S6 Ribosomal Protein (S235/236); assay: Inhibition of kinase phosphorylation by Western Blot in MV-4-11; format: cell-based; conditions: Homo sapiens, MV4-11; MV-4-11 cells, 4 hour-incubation; read-out: pS6 MV-4-11 IC50
Protocol: as §1

phospho-STAT5 (Y694) [6] = assay: as above; format: cell-based; conditions: Homo sapiens, MV4-11; MV-4-11 cells, 4 hour-incubation; read-out: pSTAT5 MV-4-11 IC50
Protocol: as §1

[7] = system: Phospho-p44/42 MAPK (Erk1/2) (T202/Y204); assay: as above; format: cell-based; conditions: Homo sapiens, MV4-11; MV-4-11 cells, 4 hour-incubation; read-out: pERK MV-4-11 IC50
Protocol: as §1

FLT3-ITD [8] = biological target: FLT3-ITD (Homo sapiens, UniProt P36888); assay: HotSpot radiometric kinase assay (Reaction Biology); format: biochemical
MV-4-11 cells = assay: MV-4-11 cell proliferation assay (CellTiter-Glo 2.0); format: cell-based; conditions: MV-4-11, 384-well, 11-dose dilution series, read-out: IC50, inhibition of MV-4-11 cell proliferation
Protocol: MV-4-11 cell line was purchased from ATCC and maintained in RPMI medium supplemented with 10% fetal bovine serum and 100 U/mL of penicillin/streptomycin. One thousand MV-4-11 cells/50 μl per well were seeded in white 384-well plate, followed by treatment with indicated compounds in a 11-dose dilution series. Cell proliferation was measured using CellTiter-Glo 2.0 luciferase-based ATP detection assay (Promega, Madison, WI) following the manufacturer's protocol. Plates were then read on a TECAN Sparks multimode microplate reader. Data was analyzed using GraphPad Prism 9 (GraphPad Software, San Diego, CA) to obtain IC50 values.

PIM1 = PIM1 (Homo sapiens (Human), UniProt P11309); assay: HotSpot radiometric kinase assay (Reaction Biology); format: biochemical
Protocol: (§2) Briefly, specific kinase/substrate pairs along with required cofactors were prepared in reaction buffer; 20 mM Hepes pH 7.5, 10 mM MgCl2, 1 mM EGTA, 0.02% Brij35, 0.02 mg/ml BSA, 0.1 mM Na3VO4, 2 mM DTT, 1% DMSO. Compounds were delivered into the reaction, followed ˜20 minutes later by addition of a mixture of ATP (Sigma, St. Louis MO) and ^33P ATP (Perkin Elmer, Waltham MA) to a final concentration of […]. Reactions were carried out at room temperature for 120 min, followed by spotting of the reactions onto P81 ion exchange filter paper (Whatman Inc., Piscataway, NJ). Unbound phosphate was removed by extensive washing of filters in 0.75% phosphoric acid. […] IC50 values and curve fits were obtained using Prism (GraphPad Software).

PIM2 = PIM2 (Homo sapiens (Human), UniProt Q9P1W9); assay: as above; format: biochemical
Protocol: as §2

PIM3 = PIM3 (Homo sapiens (Human), UniProt Q86V86); assay: as above; format: biochemical
Protocol: as §2

FLT3 = FLT3 (Homo sapiens (Human), UniProt P36888); assay: as above; format: biochemical
FLT3-ITD [9] = biological target: FLT3-ITD (Homo sapiens, UniProt P36888, ITD); assay: as above; format: biochemical
FLT3-ITD (Homo sapiens, UniProt P36888, ITD), sequence (P36888 whole entry, looked up, change not shown): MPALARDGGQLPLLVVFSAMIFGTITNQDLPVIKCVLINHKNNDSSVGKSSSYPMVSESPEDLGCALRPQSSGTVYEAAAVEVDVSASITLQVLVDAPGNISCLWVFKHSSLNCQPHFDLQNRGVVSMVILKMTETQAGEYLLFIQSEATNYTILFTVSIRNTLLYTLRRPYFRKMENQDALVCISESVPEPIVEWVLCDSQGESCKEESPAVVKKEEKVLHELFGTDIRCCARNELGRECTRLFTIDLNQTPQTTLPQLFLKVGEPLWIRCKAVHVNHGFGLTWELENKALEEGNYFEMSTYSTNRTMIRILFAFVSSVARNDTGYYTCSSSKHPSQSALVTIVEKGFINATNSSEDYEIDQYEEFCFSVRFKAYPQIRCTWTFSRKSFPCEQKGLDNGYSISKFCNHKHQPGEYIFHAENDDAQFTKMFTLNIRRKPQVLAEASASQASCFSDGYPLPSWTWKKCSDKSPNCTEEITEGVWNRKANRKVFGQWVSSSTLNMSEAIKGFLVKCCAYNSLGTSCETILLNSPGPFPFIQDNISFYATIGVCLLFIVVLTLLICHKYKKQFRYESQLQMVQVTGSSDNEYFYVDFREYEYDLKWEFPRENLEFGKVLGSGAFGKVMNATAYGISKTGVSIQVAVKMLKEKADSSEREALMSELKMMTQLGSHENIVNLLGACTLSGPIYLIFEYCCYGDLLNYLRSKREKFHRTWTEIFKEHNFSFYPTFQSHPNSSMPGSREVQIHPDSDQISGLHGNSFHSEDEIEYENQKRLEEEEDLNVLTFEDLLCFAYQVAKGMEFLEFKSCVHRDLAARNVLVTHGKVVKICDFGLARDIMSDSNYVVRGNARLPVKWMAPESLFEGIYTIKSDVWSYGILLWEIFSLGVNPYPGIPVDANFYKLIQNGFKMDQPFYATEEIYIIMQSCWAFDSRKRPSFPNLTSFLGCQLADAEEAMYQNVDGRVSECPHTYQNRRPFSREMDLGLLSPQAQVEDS

PIM1, sequence (P11309 whole entry): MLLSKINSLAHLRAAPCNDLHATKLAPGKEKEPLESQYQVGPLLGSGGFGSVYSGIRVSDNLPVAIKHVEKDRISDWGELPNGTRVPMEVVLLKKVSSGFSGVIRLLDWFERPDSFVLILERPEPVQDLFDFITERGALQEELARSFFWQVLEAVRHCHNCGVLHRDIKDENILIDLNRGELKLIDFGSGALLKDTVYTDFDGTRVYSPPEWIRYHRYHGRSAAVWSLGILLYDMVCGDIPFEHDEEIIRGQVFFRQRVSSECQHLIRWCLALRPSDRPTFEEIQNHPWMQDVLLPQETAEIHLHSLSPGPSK
PIM2, sequence (Q9P1W9 whole entry): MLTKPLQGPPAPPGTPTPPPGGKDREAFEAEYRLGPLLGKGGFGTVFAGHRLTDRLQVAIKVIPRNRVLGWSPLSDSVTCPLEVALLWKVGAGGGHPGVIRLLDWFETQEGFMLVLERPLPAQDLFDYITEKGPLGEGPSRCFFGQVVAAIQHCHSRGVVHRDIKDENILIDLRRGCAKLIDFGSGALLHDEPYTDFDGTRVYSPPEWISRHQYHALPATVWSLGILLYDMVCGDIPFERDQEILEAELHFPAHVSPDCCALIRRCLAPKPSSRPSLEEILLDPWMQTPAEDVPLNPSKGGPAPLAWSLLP
FLT3, sequence (P36888 27-993): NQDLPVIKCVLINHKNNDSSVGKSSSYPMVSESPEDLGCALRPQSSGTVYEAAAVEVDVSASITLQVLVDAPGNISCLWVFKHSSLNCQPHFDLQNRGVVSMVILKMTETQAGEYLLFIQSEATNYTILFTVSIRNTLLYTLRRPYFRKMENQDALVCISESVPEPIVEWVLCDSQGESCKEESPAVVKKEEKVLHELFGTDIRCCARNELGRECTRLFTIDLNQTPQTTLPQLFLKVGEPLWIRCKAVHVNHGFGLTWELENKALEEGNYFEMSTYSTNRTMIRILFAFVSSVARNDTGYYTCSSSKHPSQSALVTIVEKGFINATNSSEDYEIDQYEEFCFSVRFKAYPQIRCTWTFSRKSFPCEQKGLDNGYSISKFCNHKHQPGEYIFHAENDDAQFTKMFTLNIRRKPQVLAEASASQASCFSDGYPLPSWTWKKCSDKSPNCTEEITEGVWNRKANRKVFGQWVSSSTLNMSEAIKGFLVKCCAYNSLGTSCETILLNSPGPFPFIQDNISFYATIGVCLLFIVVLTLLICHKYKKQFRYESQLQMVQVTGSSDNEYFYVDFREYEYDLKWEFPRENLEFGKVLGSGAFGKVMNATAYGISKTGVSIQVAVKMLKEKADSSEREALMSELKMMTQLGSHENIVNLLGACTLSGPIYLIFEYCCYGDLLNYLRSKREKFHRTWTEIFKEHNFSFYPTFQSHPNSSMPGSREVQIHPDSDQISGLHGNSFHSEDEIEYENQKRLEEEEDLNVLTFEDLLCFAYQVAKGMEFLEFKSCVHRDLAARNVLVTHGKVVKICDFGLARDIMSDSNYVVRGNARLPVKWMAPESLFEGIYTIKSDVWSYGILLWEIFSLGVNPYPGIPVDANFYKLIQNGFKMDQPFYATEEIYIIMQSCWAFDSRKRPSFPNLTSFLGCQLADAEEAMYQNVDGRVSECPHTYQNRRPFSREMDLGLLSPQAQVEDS
FLT3-ITD (Homo sapiens, UniProt P36888), sequence (P36888 whole entry, looked up, change not shown): as the sequence (P36888 whole entry, looked up, change not shown) above

SMILES	IC50 (PIM1) [nM]	IC50 (PIM2) [nM]	IC50 (PIM3) [nM]	IC50 (FLT3) [nM]	IC50 (MV-4-11 cells; Homo sapiens, MV4-11) [nM]	further results
CN1CCOc2c(cnn2C)-c2ccc3c(c2)c(nn3C2CCCCO2)/C=C/c2c(Br)nn(C)c2C1=O (centres unmarked)	–	–	–	–	–	ring closure, yield of all isomers [1]: 94.8%
CCc1nc(C(N)=O)c(Nc2ccc(N3CCC(N4CCN(C)CC4)CC3)c(OC)c2)nc1NC1CCOCC1 [Gilteritinib, reference compound]	–	–	–	–	–	IC50 [2]: 7.91 nM; IC50 (phospho-STAT5 (Y694) [3]): 2.23 nM; IC50 [4]: 1.31 nM; IC50 [5]: 0.92 nM; IC50 (phospho-STAT5 (Y694) [6]): 1.75 nM; IC50 [7]: 1.63 nM
Cc1nn(C)c2c1/C=C/c1n[nH]c3ccc(cc13)-c1cnn(C)c1OCCN(C)C2=O [compound 8, (17E)-8,12,14,16-tetramethyl-2,11,12,14-tetrahydro-8H-3,5-ethenotripyrazolo[3,4-f:3′,4′-j:4″,3″-n][1,4]oxazacyclopentadecin-13(10H)-one]	1.64	8.17	0.0732	–	< 0.2	–

More lines, main results first:

IC50 (PIM1) [nM]	IC50 (PIM2) [nM]	IC50 (PIM3) [nM]	IC50 (FLT3) [nM]	IC50 (MV-4-11 cells; Homo sapiens, MV4-11) [nM]	SMILES	further results
6.72	14	0.221	0.247	–	CCc1c2c(nn1C)C(=O)N(C)CCOc1c(cnn1C)-c1ccc3[nH]nc(c3c1)/C=C/2 [compound 7, (17E)-16-ethyl-8,12,15-trimethyl-2,11,12,15-tetrahydro-8H-3,5-ethenotripyrazolo[3,4-f:3′,4′-j:4″,3″-n][1,4]oxazacyclopentadecin-13(10H)-one]	IC50 (FLT3-ITD [8]): 0.537 nM; IC50 (MV-4-11 cells): 73.1 nM
12.7	145	3.65	0.347	~1	Cc1c2c(nn1C)C(=O)N(C)CCOc1c(cnn1C)-c1ccc3[nH]nc(c3c1)/C=C/2 [compound 9, (17E)-8,12,15,16-tetramethyl-2,11,12,15-tetrahydro-8H-3,5-ethenotripyrazolo[3,4-f:3′,4′-j:4″,3″-n][1,4]oxazacyclopentadecin-13(10H)-one]	IC50 (FLT3-ITD [9]): 0.592 nM
